Structures can show the parent of a compound that is named as a salt.
Columns and labels:
[1] = tested on: TNF-a production by peripheral blood mononuclear cells; assay: Inhibition of Tumor Necrosis Factor alpha in LPS-stimulated PBMC adherent cells (ELISA); format: cell-based; conditions: human PBMC adherent cells, 1 μg/ml LPS, 18 hours
Experimental: Peripheral blood mononuclear cells (PBMC) are isolated from venous blood collected from healthy volunteers in sodium citrate (5 ml of 3.6% sodium citrate for 45 ml of blood) by density gradient centrifugation of 5 minutes at 1500 rpm. The PBMC are resuspended in about 10 ml of RPMI-1640 with antibiotics. Approximately 2×10^6 cells of PBMC are added to tissue culture plates, incubated for 45-60 minutes at 37 C with 5% CO2, aspirated, and washed twice by adding about 0.5 ml fresh RPMI-1640 with 10% non-mitogenic FBS (RPMI complete) and shaking for 15 to 30 seconds. 1.0 ml RPMI-1640 is added per well to the remaining adherent cells, which are pretreated with test compound solution about 15 minutes prior to endotoxin stimulation (1 μg/ml lipopolysaccharide from E. coli or solvent concentrations equal to those of test compounds.
Cultures are incubated for 18 hours t 37 C in 5% CO2. Supernatants are tested from TNF-a using a commercial ELISA kit (Cistron, Pine Brook, N.J.). The IC50 is determined using SOFTmax software program.

[2] = tested on: Major Histocompatibility complex (MHC) class II antigen levels on macrophages; assay: Regulation of MHC class II expression on macrophages from M. tuberculosis-treated rats (flow cytometry, OX-6/OX-42); format: cell-based, rat; conditions: 10 μM, 18 hours; positive control 59%
Experimental: Using the method of Edwards (J. of Cell Biochemistry 5E, 155(1991)), the ability of a compound of formula (1) to reduce Major Histocompatibility complex (MHC) class II antigen levels on macrophages (MΦ) obtained from M. tuberculosis-treated rats may be measured. Cells obtained from treated rats are plated into tissue culture for a period of 4 hours to purify adherent cells, then treated with increasing levels of drug for a period of 18 hours. After this incubation period, cells are scraped from the dishes and stained using flow cytometry analysis with various monoclonal antibodies such as OX-6 a monoclonal antibody specific for MHC class II antigens and OX-42 a monoclonal antibody specific for rat macrophages.

[3] = tested on: Rat macrophage antigen presentation to mBSA-reactive T-cell hybridoma / Interleukin-2 production; assay: Regulation of macrophage antigen presentation to rat T-cell hybridoma (Interleukin-2 production); format: cell-based
Experimental: Using the method of Ku (Cellular Immunology 130, (1990)), and a Lewis (LEW/N) rat T-cell hybridoma reactive with the protein methylated bovine serum albumin (mBSA), the ability of a compound of formula (1) to regulate MΦ antigen presentation in vitro may be measured. Peritoneal macrophages obtained from LEW/N rats are plated into tissue culture and treated with 100 μg of mBSA and drug. A control is prepared similarly. After a period of 18 hours the cells are washed and incubated with the T-cell hybridoma for an additional 12 hours. Supernatants from these cultures are obtained and measured for content of Interleukin-2, a T-cell derived lymphokine which is produced by activated T-cells. […] Rat macrophage antigen presentation and the subsequent production of Interleukin-2 are inhibited when drug is administered over a concentration range from 0.1 to 100 μM as illustrated in the following table.

[4] = tested on: endotoxin-induced septic shock in CF1 mice; assay: Mouse endotoxin lethality model (D-galactosamine/LPS); format: in vivo; conditions: 100 mg/kg i.p., pretreated t=-1 hr, 18 mg D-glactoseamine and 50 ng LPS, observed 8-72 hour
Experimental: Using the method of Silverstein, (J. Exp. Med. 173, 357 (1991)) a mouse endotoxin lethality model may be used to determine if a compound of formula (1) has the ability to inhibit endotoxin-induced septic shock which is dependent on the production of Tumor Necrosis Factor-α (TNF-α). CF1 mice pretreated at time (t)=−1 hr with drug are challenged with 18 mg of D-glactoseamine and 50 ng of LPS, then observed for death over an 8-72 hour period.

Row | SMILES | IC50 [1] [µM] | OX-6/OX-42 double positive macrophages [2] [%] | T-cell activation ([3]; 0.1 to 100 μM) | % Inhibition (antigen presentation / Interleukin-2 production) ([3]; in vitro concentration 0.1 μM) [%] | % Inhibition (antigen presentation / Interleukin-2 production) ([3]; in vitro concentration 1.0 μM) [%] | % Inhibition (antigen presentation / Interleukin-2 production) ([3]; in vitro concentration 10.0 μM) [%] | % Inhibition (antigen presentation / Interleukin-2 production) ([3]; in vitro concentration 100.0 μM) [%] | protection against endotoxin lethality [4]
1 | Nc1ncnc2c1ncn2[C@@H]1CCC[C@H]1O (racemic) [(±)-Trans-1-(9-adenyl)-2-hydroxycyclopentane, reference compound] | 22.2 | – | – | – | – | – | – | –
2 | Cl.Nc1ncnc2c1ncn2[C@@H]1CC[C@@H](O)C1 (relative stereo) [Example 1, (1R,3R)-trans-1(9-Adenyl)cyclopentan-3-ol Hydrochloride] | 9 | 39 | inhibits T-cell activation | 7.6 | 30.9 | 48.7 | 55.3 | protects against endotoxin lethality
3 | Nc1nc(Cl)nc2c1ncn2[C@@H]1CC[C@@H](O)C1 (relative stereo) [Example 6, (1R,3R)-trans-1-[9-(6-Amino-2-chloropurinyl)]cyclopentan-3-ol Hydrochloride] | 4.1 | – | – | – | – | – | – | –

Reference: patent US6436947B1, “Trans cyclopentanyl purine analogs useful as immunosuppressants” (Aventis Pharmaceuticals Inc., priority 1991, dated 2002)
